Read-outs that look alike come from different tables or passages of the source. Marks after values point to notes of the source that are not given here.
What was measured:
[1] = system: COc1ccc(-c2c3ccc(=O)cc-3oc3cc(OCc4ccc(OCC5=C(C(=O)O)N6C(=O)[C@@H](NC(=O)Cc7ccccc7)[C@H]6SC5)cc4)ccc23)c(C)c1; experiment: purified protein, by the assay type; settings: 22.0 °C
[2] = system: COc1ccc(-c2c3ccc(=O)cc-3oc3cc(OCc4ccc(OCC5=C(C(=O)O)N6C(=O)[C@](NC(=O)Cc7ccccc7)(OC)[C@H]6SC5)cc4)ccc23)c(C)c1; experiment: purified protein, by the assay type; settings: 22.0 °C
[3] = system: O=C(Cc1ccccc1)N[C@@H]1C(=O)N2C(C(=O)O)=C(COc3ccc4ccc(=O)oc4c3)C[S@+]([O-])[C@H]12; experiment: purified protein, by the assay type; settings: pH 7.4; 22.0 °C
[4] = target: T1, BlaC (Mycobacterium tuberculosis, UniProt P9WKD3); settings: for Km: read-out: BlaC Km
T1 sequence (P9WKD3 35-307 limits assumed): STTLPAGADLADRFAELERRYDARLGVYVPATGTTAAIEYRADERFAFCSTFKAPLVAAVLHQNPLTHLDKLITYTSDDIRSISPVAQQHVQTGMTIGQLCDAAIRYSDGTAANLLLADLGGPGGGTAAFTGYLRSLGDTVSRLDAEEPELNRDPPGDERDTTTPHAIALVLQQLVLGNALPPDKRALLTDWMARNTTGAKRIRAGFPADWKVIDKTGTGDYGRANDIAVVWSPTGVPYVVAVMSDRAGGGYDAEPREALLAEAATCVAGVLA

[5] = target: T1, BlaC; experiment: Fluorescence activation of probes by BlaC; assay type: biochemical
Description: (§1) The fluorescent spectra of the probes CDC-1, CDC-3, CDC-OMe and CDC-OEt were recorded before and after BlaC treatment to examine their responses to BlaC.
(§2) The response of CDC-OMe to varying concentrations of BlaC and TEM-1 Bla (at a range of 1 pM to 100 nM) was examined to investigate its specificity (FIG. 1C). 1 nM of BlaC (100 μL) induced a 130% increase in the fluorescence intensity within one hour (F/F0=2.3), while a 100-fold higher TEM-1 Bla concentration (100 nM) could only produce 30% fluorescence enhancement (F/F0=1.3).
(§3) Even at a more than 1000-fold higher concentration, the fluorescence signal of CDG-OMe generated by TEM-1 Bla (400 nM) was just 30% of that by BlaC (400 pM) in 300 mins, confirming its high selectivity for BlaC (FIG. 5C). Less than 1 fmol of BlaC was readily detectable with CDG-OMe after 8 hours incubation (FIG. 5D).

[6] = target: TEM-1 Bla (Escherichia coli, UniProt P62593); experiment: Fluorescence activation of probes by TEM-1 Bla; assay type: biochemical, E. coli; settings: for change in fluorescence with TEM-1 Bla (in words): TEM-1 Bla 50 nM, 30 minutes
Sequence of TEM-1 Bla (P62593 24-286 limits assumed): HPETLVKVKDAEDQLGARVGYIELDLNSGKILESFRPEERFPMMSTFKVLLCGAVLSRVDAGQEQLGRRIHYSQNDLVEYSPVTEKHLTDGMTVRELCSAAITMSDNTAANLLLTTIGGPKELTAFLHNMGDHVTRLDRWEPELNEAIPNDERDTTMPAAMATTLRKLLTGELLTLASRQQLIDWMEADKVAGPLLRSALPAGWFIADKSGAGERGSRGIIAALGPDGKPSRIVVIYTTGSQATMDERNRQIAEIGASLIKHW
Description: as §1, §2, §3

[7] = system: BlaC-expressing E. coli; assay type: cell-based
[8] = system: TEM-1 Bla-expressing E. coli; assay type: cell-based
[9] = system: M. tuberculosis var. bovis strain BCG; assay type: cell-based, Mycobacterium tuberculosis var. bovis strain BCG
[10] = 1 nM of BlaC (100 μL), within one hour

For BlaC (Mycobacterium tuberculosis H37Rv), the Km ([1]; pH 6.6) was “(2.1)^c μM”, the Km ([1]; pH 7.4) was 2.1 µM and the kcat ([1]; pH 7.4) was 3.7 s⁻¹. The kcat/Km ([1]; pH 7.4) was 1.8 × 10^6 s^−1M^−1, the Km ([2]; pH 6.6) was “(4.7)^c μM” and the Km ([2]; pH 7.4) was 2.9 µM. The kcat ([2]; pH 7.4) was 0.7 s⁻¹, the kcat/Km ([2]; pH 7.4) was 2.4 × 10^5 s^−1M^−1 and the Km [3] was 136 µM. The kcat [3] was 0.51 s⁻¹ and the kcat/Km [3] was 3.8 × 10^3 s^−1M^−1.

In the case of `CO[C@@]1(NC(C)=O)C(=O)N2C(C(=O)O)=C(COc3ccc4ccc(=O)oc4c3)CS[C@@H]21` [CDC-5, (6R,7S)-7-Acetamido-7-methoxy-8-oxo-3-(((2-oxo-2H-chromen-7-yl)oxy)methyl)-5-thia-1-azabicyclo[4.2.0]oct-2-ene-2-carboxylic acid], the BlaC kcat [4] is reported as 0.52 s⁻¹ and the Km [4] is reported as 139 µM.

With `COc1ccc(-c2c3ccc(=O)cc-3oc3cc(OCc4ccc(OCC5=C(C(=O)O)N6C(=O)[C@](NC(=O)Cc7ccccc7)(OC)[C@H]6SC5)cc4)ccc23)c(C)c1` [CDG-OMe, (6R,7S)-7-Methoxy-3-((4-(((9-(4-methoxy-2-methylphenyl)-3-oxo-3H-xanthen-6-yl)oxy)methyl)phenoxy)methyl)-8-oxo-7-(2-phenylacetamido)-5-thia-1-azabicyclo[4.2.0]oct-2-ene-2-carboxylic acid] the “amount of BlaC readily detectable” value ([5]; after 8 hours incubation) was “Less than 1 fmol”, the “increase of fluorescence emission at 520 nm upon treatment with BlaC” value ([5]; excitation 490 nm) was “up to 218 fold” and the “fluorescence signal generated by TEM-1 Bla relative to that by BlaC” value ([6]; TEM-1 Bla 400 nM vs BlaC 400 pM, 300 mins) was 30%. For the same compound, the “signal from BlaC-expressing E. coli (in words)” value [7] was “strong fluorescent signal”, the “signal from TEM-1 Bla-expressing E. coli (in words)” value [8] was “no detectable signal” and the “number of BCG detected” value ([9]; 20 min incubation) was 2×10^5 CFU. For the same compound, the “number of BCG detected” value ([9]; 438 mins (7 hours) incubation) was 10^3 CFU, the “increase of kcat/Km for BlaC relative to CDC-OMe” value [4] was 11 fold and the BlaC kcat ([4]; pH 6.6) was “(0.8) s^−1”.

With `CCN1CCN(C(=O)N[C@@H](C(=O)N[C@@H]2C(=O)N3C(C(=O)O)=C(COc4ccc5ccc(=O)oc5c4)CS[C@H]23)c2ccccc2)C(=O)C1=O` [CDC-3, (6R,7R)-7-((R)-2-(4-Ethyl-2,3-dioxopiperazine-1-carboxamido)-2-phenylacetamido)-8-oxo-3-((2-oxo-2H-chromen-7-yloxy)methyl)-5-thia-1-azabicyclo[4.2.0]oct-2-ene-2-carboxylic acid] the “change in fluorescence with TEM-1 Bla (in words)” value (from here on “change in fluorescence”) [6] was “rapid fluorescence”, the BlaC kcat [4] was 6 s⁻¹ and the Km [4] was 69 µM.

`O=C(Cc1ccccc1)N[C@@H]1C(=O)N2C(C(=O)O)=C(COc3ccc4ccc(=O)oc4c3)CS[C@H]12` [CDC-1, (6R,7R)-8-Oxo-3-((2-oxo-2H-chromen-7-yloxy)methyl)-7-(2-phenylacetamido)-5-thia-1-azabicyclo[4.2.0]oct-2-ene-2-carboxylic acid] was tested, and the “change in fluorescence” value [6] was “rapid fluorescence”, the “signal with TEM-1 Bla compared with BlaC (in words)” value ([6]; serially diluted enzymes, 1 hour) was “stronger signal than with BlaC” and the “fluorescence in E. coli expressing no β-lactamase, TEM-1 Bla or BlaC (in words)” value [7] was “present in E. coli expressing either TEM-1 Bla or BlaC”. The BlaC kcat [4] was 13 s⁻¹ and the Km [4] was 63 µM.

With `CO[C@@]1(NC(=O)Cc2ccccc2)C(=O)N2C(C(=O)O)=C(COc3ccc4ccc(=O)oc4c3)CS[C@@H]21` [CDC-OMe, (6R,7S)-7-Methoxy-8-oxo-3-((2-oxo-2H-chromen-7-yloxy)methyl)-7-(2-phenylacetamido)-5-thia-1-azabicyclo[4.2.0]oct-2-ene-2-carboxylic acid] the “F/F0 (turn-on ratio)” value [5, 10] was 2.3, the “increase in the fluorescence intensity” value [5, 10] was 130% and the “enhancement of fluorescence intensity by BlaC” value ([5]; in less than 30 minutes, BlaC 50 nM) was “more than 30 fold”. The “change in fluorescence” value [6] was “no change in the fluorescence intensity”, the “F/F0 (turn-on ratio)” value ([6]; TEM-1 Bla 100 nM, one hour) was 1.3 and the fluorescence enhancement ([6]; TEM-1 Bla 100 nM, one hour) was 30%. For the same compound, the “fluorescence in E. coli expressing no β-lactamase, TEM-1 Bla or BlaC (in words)” value [7] was “strong fluorescence was observed only with E. coli expressing BlaC”, the BlaC kcat [4] was 1 s⁻¹ and the “catalytic efficiency (kcat/Km) for BlaC over TEM-1 Bla” value [4] was “over 1,000 fold”. It also gave a Km [4] of 47 µM.

Work on `CC(=O)N[C@@H]1C(=O)N2C(C(=O)O)=C(COc3ccc4ccc(=O)oc4c3)CS[C@H]12` [CDC-4, (6R,7R)-7-Acetamido-8-oxo-3-(((2-oxo-2H-chromen-7-yl)oxy)methyl)-5-thia-1-azabicyclo[4.2.0]oct-2-ene-2-carboxylic acid] yielded a BlaC kcat [4] of 10 s⁻¹ and a Km [4] of 148 µM.

For `COc1ccc(-c2c3ccc(=O)cc-3oc3cc(OCc4ccc(OCC5=C(C(=O)O)N6C(=O)[C@@H](NC(=O)Cc7ccccc7)[C@H]6SC5)cc4)ccc23)c(C)c1` [CDG-1, (6R,7R)-3-((4-(((9-(4-Methoxy-2-methylphenyl)-3-oxo-3H-xanthen-6-yl)oxy)methyl)phenoxy)methyl)-8-oxo-7-(2-phenylacetamido)-5-thia-1-azabicyclo[4.2.0]oct-2-ene-2-carboxylic acid], the “number of BlaC-carrying E. coli detected” value [7] was ~10,000, the “number of TEM-1 Bla-carrying E. coli detected” value [8] was “approximately 1,000” and the BlaC kcat ([4]; pH 6.6) was “(1.0) s^−1”.

With `CCO[C@@]1(NC(=O)Cc2ccccc2)C(=O)N2C(C(=O)O)=C(COc3ccc4ccc(=O)oc4c3)CS[C@@H]21` [CDC-OEt, (6R,7S)-7-Ethoxy-8-oxo-3-((2-oxo-2H-chromen-7-yloxy)methyl)-7-(2-phenylacetamido)-5-thia-1-azabicyclo[4.2.0]oct-2-ene-2-carboxylic acid] the “fluorescence enhancement by BlaC (in words)” value ([5]; within 30 minutes, BlaC 50 nM) was “only slight fluorescence enhancement”, the BlaC kcat [4] was 0.026 s⁻¹ and the “further reduction in turnover number (BlaC) relative to CDC-OMe” value [4] was 40 fold. For the same compound, the Km [4] was 131 µM.

Reference: patent publication US9677112B2 (priority 2012, dated 2017)
